Test results reported in article PMC4850273 (mBio, 2016).

Biological target: T1, SGBP-A (Bacteroides ovatus, UniProt A7LXT5)
T1 sequence (A7LXT5 28-546): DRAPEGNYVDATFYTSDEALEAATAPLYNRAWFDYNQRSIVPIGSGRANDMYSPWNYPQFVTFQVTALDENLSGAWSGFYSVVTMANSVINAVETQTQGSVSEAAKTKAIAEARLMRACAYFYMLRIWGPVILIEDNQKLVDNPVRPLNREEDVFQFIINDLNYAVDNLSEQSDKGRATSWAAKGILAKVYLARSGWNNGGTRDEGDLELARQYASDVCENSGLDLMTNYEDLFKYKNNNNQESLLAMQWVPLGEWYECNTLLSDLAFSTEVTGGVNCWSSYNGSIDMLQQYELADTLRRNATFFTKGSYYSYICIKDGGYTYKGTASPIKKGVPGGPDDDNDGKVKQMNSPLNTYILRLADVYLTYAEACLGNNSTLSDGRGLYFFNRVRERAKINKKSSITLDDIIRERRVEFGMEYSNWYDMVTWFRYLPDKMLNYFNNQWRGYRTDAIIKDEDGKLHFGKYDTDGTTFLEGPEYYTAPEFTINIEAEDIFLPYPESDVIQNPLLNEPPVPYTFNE
Experiment: ITC
Format: binding
Conditions: 25 °C, 20 mM HEPES, 100 mM NaCl, pH 7.0; two titrations

`OC[C@H]1O[C@@H](O[C@H]2[C@H](O)[C@@H](O)[C@H](O[C@H]3[C@H](O)[C@@H](O)[C@H](O[C@H]4[C@H](O)[C@@H](O)[C@H](O[C@H]5[C@H](O)[C@@H](O)[C@H](O[C@H]6[C@H](O)[C@@H](O)C(O)O[C@@H]6CO)O[C@@H]5CO)O[C@@H]4CO)O[C@@H]3CO)O[C@@H]2CO)[C@H](O)[C@@H](O)[C@@H]1O` (stereo partly shown) [Cellohexaose] was tested, and the “Ka (M^-1) / SGBP-A” value was 568.0 ± 291.0.
